Drawing on ChEMBL document CHEMBL1134966 (Bioorg Med Chem Lett, 2002), this text covers IC50 for twelve compounds.

pIC50: −log10 of the molar value.

Some test systems named below: G-361; K562; MCF7; CCRF-CEM; HOS.
Assay in all cases: cells
What all share (format): functional, cell-based
Details in all cases: Homo sapiens

A word on the pIC50: it is −log10 of the IC50, conventionally taken in molar units. A high value points to a small IC50.

Description for CCRF-CEM: In vitro cytotoxic effect on CEM cancer cell line
Description for G-361: In vitro cytotoxic effect on G361 cancer cell line
Description for HOS: In vitro cytotoxic effect on HOS cancer cell line
Description for K562: In vitro cytotoxic effect on K562 cancer cell line
Description for MCF7: In vitro cytotoxic effect on MCF-7 cancer cell line

Take `CC(C)n1cnc2c(NCc3cccc(O)c3)nc(NCCCO)nc21`: the pIC50 with G-361 is 4.59; in the test on K562 it was 4.25; with MCF7, 4.83; in the test with CCRF-CEM it was 4.75; in the test with HOS, 4.59.
`CC(C)C(CO)Nc1nc(NCc2cccc(O)c2)c2ncn(C(C)C)c2n1` (stereo unspecified): the negative logarithm of the IC50 (pIC50) was 4.79 in the test with K562, 4.83 in the test on MCF7 and 5.17 in the test with CCRF-CEM.
Turning to `CC[C@H](CO)Nc1nc(NCc2ccccc2O)c2ncn(C(C)C)c2n1` [OLOMOUCINE II], the negative logarithm of the IC50 (pIC50) is 5.20 with G-361; 4.95 in the test with K562; 5.28 with MCF7; 5.52 in the test on CCRF-CEM; 5.20 with HOS.
As for `CCC(CO)Nc1nc(NCc2cccc(O)c2)c2ncn(C(C)C)c2n1` (stereo unspecified), the negative-log IC50 (pIC50) with G-361 is 4.71; in the test on K562 it was 4.59; with MCF7, 4.86; with CCRF-CEM it was 5.00; in the test with HOS, 4.96.
With `CC(C)n1cnc2c(NCc3ccc(O)cc3)nc(NCCCO)nc21`, the pIC50 in the test with G-361 is 4.64; in the test on K562, 4.24; in the test on MCF7, 4.90; with CCRF-CEM, 4.74.
With `CC(C)C(CO)Nc1nc(NCc2ccc(O)cc2)c2ncn(C(C)C)c2n1` (stereo unspecified), the pIC50 in the test with G-361 is 4.95; in the test with K562 it was 4.83; in the test on MCF7 it was 5.03; with CCRF-CEM, 5.28; in the test with HOS it was 4.92.
`CC(C)C(CO)Nc1nc(NCc2ccccc2O)c2ncn(C(C)C)c2n1` (stereo unspecified): the pIC50 with G-361 is 5.11; with K562 it was 4.96; in the test with MCF7, 5.24; with CCRF-CEM, 5.36; with HOS, 5.08.
In the case of `Cn1cnc2c(NCc3ccccc3)nc(NCCO)nc21` [OLOMOUCINE], the pIC50 in the test on G-361 was 3.80; in the test on K562, under 3.78; with CCRF-CEM, 4.21; in the test with HOS, 3.83.
As for `CC(C)n1cnc2c(NCc3ccccc3)nc(NCCCO)nc21` [BOHEMINE], the pIC50 was 4.35 in the test on G-361; 3.95 in the test on K562; 4.55 with MCF7; 4.57 in the test with CCRF-CEM; 4.24 with HOS.
Turning to `CC(C)n1cnc2c(NCc3ccccc3O)nc(NCCCO)nc21`, the pIC50 with G-361 was 4.88; in the test on K562 it was 4.62; with MCF7 it was 4.91; with CCRF-CEM, 4.97; in the test with HOS, 4.76.
Take `CCC(CO)Nc1nc(NCc2ccc(O)cc2)c2ncn(C(C)C)c2n1` (stereo unspecified): the pIC50 with G-361 was 4.95; in the test on K562 it was 4.62; in the test on MCF7 it was 5.11; in the test with CCRF-CEM it was 4.96; in the test on HOS it was 4.89.
The like results for `CC(C)[C@H](CO)Nc1nc(Nc2cccc(Cl)c2)c2ncn(C(C)C)c2n1` [PURVALANOLA] were, in that order, 4.62, 5.05, 4.97, 5.13 and 4.66.
